Reference: publication PMC5321741, “Arylmethylamino steroids as antiparasitic agents” (Nature Communications, 2017)
Several values for one entry are separate records, joined by “and”; a condition that tells them apart may be missing. Identical values can stand only once. Counter-ions that a name gives are not always drawn. Like-named read-outs stand apart in the source and are kept apart here. Each block holds one molecule with its values, some of them ahead of it.

Columns and labels:
[1] = test system: adult Schistosoma mansoni; test: schistosome in vitro culture with inhibitor treatment; format: cell-based
[2] = test system: P. berghei GFP ANKA malaria strain; test: P. berghei mouse model (Peter's test); format: in vivo, Plasmodium berghei in NMRI mice; conditions: for % activity (reduction of parasitaemia) / % of control / Parasitized RBC over 100, Average / Parasitized RBC over 100, individual mice M1-M3: day 4
Procedure: The animal experiments described here were performed at the Swiss Tropical and Public Health Institute (Swiss TPH, Basel, Switzerland), they were approved by the Swiss Cantonal Authorities (‘Kantonales Veterinäramt Basel Stadt') adhering to local and national regulations of laboratory animal welfare in Switzerland. The best compounds were tested in the murine P. berghei model essentially as described. The infection was initiated at day 0 with the P. berghei GFP ANKA malaria strain (donation from AP Waters and CJ Janse, Leiden University). From donor mice (female NMRI mice, 18–20 grams (about 3 weeks) from Charles River Germany) with ∼30% parasitaemia, heparinized blood was taken and diluted in physiological saline to 10^8 parasitized erythrocytes/ml. An aliquot (0.2 ml) of this suspension was injected intravenously into experimental and control groups of mice (female NMRI mice, 18–20 grams (about 3 weeks) from Charles River Germany). Usually, in untreated control mice parasitaemia rose regularly to ∼30% by day 3 post-infection. Control mice died between days 6 and 7 post infection. In the experiments described here, however, control animals (n=5) were killed on day 4 post infection for ethical reasons.
The steroid compounds were prepared at an appropriate concentration as a solution/suspension in Tween 80/alcohol (7:3, Tween 80 and absolute ethanol, respectively), followed by a 10x dilution in water. […] The route of administration was i.p., p.o., s.c. in a volume of 10 ml kg^−1.
The degree of infection (parasitaemia expressed in % of infected erythrocytes) was determined by FACS analysis on day 4 (96 h post infection). The difference of the mean infection rate of the control group (=100%) to the test group was calculated and expressed as a percent reduction. For example, activity determination with a mean of 2% parasitaemia in treated mice and a mean of 40% parasitaemia in the control animals is calculated as follows: (40−2%)/40% × 100=95% activity. The survival time in days was recorded up to 30 days after infection. A compound was considered curative if the animal survived to day 30 after infection with no detectable parasites (confirmed by light microscopy).

HUVEC = test: antiproliferative activity on HUVEC cells; format: cell-based; conditions: Homo sapiens, HUVEC, 72 h
Procedure: (§1) Compounds were tested for their antiproliferative activity on HUVEC and K-562 cells and for cytotoxicity on HeLa cells using standard protocols. K-562 (DSM ACC 10), HUVEC (ATCC CRL-1730), and HeLa (DSM ACC 57) cells were cultured as described previously. To assay the antiproliferative and cytotoxic effect, procedures were carried out as described before. In brief, for each experiment with K-562 and HeLa ∼10,000 cells were seeded per well of the 96-well microplates. For the cytotoxicity assay, the HeLa cells were preincubated for 48 h without the test substances. Cells were incubated for 72 h at 37 °C in a humidified atmosphere and 5% CO2. Suspension cultures of K-562 in microplates were analysed by an electronic cell analyzer system CASY 1 (SCHÄRFE, Reutlingen, Germany). The monolayer of the HUVEC and HeLa cells were fixed by glutaraldehyde (MERCK) and stained with a 0.05% solution of methylene blue (SERVA). After gently washing, the stain was eluted by 0.2 ml of 0.33 N HCl in the wells. The optical densities were measured at 660 nm in a microplate reader. The calculations of the different values of GI50 and CC50 were performed with the software Magellan (TECAN).

[3] = test system: P. falciparum (strain 3D7); test: 72 h 3H-hypoxanthine incorporation assay, asexual blood stages; format: cell-based, Plasmodium falciparum; conditions: Plasmodium falciparum
[4] = cytotoxicity on HeLa cells; format: cell-based; conditions: human, HeLa cells
Procedure: as §1

K-562 = test: antiproliferative activity on K-562 cells; format: cell-based; conditions: Homo sapiens, K562, 72 h
Procedure: as §1

P. falciparum NF54 = test: IC50 speed assay; format: cell-based, Plasmodium falciparum; conditions: for IC50: Plasmodium falciparum, mean±s.d., three biological replicates
Procedure: To assess the rapidity of growth inhibition induced by the steroid compounds, the so-called IC50 speed assay[16] was conducted for compound 1o on P. falciparum NF54 (Fig. 2a,b).

[5] = test system: P. falciparum (strain 3D7); conditions: read-out: IC50 of mefloquine; cited from earlier work
[6] = test system: hGrx1-roGFP2 in P. falciparum 3D7; test: cytosolic glutathione redox sensor in parasites; format: cell-based, Plasmodium falciparum; conditions: 100 nM, 24 h
Procedure: To further study the mechanism of action of the steroid compounds and evaluate the potential involvement of redox stress, compound 1o was tested in cell culture on the chloroquine-sensitive P. falciparum 3D7 strain expressing the cytosolic glutathione redox sensor hGrx1-roGFP2 (Supplementary Note 2). […]
signals at 405/475 nm were calculated and plotted against time and/or concentration of compound 1o or redox active compounds. Data from three independent experiments were […]
100 µM for 4 h and 24 h incubations. Transfection of the Pf3D7 strain with the redox sensor was carried out, and the parasites were cultured as described under constant drug pressure with 5 nM WR99210 (Jacobus Pharmaceuticals, New Jersey, USA).45,46 P. falciparum trophozoites were enriched via magnet separation.47 Parasitemia was counted by using Giemsa-stained blood smears. The IC50 of compound 1o on P. falciparum 3D7 asexual blood stages was verified to be about 5 nM in an additional 72 h [3H] incorporation assay45 directly before the experiment. The effect of compound 1o on P. falciparum was investigated in 4 h and 24 h incubations. For 4 h experiments, trophozoite stage parasites (26-30 h post invasion) of 3D7[hGrx1-roGFP2] (6-8% parasitemia) were magnetically enriched (Miltenyi Biotec, Germany), counted by using the improved Neubauer hemocytometer (Brand GmbH, Germany), and returned to cell culture (at 0.5 x 10^6 trophozoites/µl) for at least 1 h to recover.
1.0 x 10^6 cells in 100 µl cell culture medium were placed into LoBind tubes (Eppendorf) for 4 h incubation experiments. The parasites were treated with compound 1o at 50 x, and 100 x IC and with mefloquine (MQ) as a standard antimalarial drug at 1 µM (IC = 8 nM)45 for 4 h […]
for 15 min at 37 °C. For 24 h experiments, a 5 ml culture (6-8% parasitemia) of ring stage parasites (6-10 h post invasion) was treated with compound 1o at 4 x, 10 x, 20 x IC50 and with 100 nM MQ. Prior to enrichment, cysteines were blocked with 2 mM NEM. For 4 h and 24 h experiments, cells were washed after incubation with pre-warmed Ringer’s solution […]
Hepes, 1 mM NaH2PO4, pH 7.4) and were seeded onto poly-L-lysine-coated µ-slides VI (Ibidi, Martinsried, Germany). A Leica confocal system TCS SP5 inverted microscope equipped with the objective HCX PL APO 63.0x1.30 GLYC 37 °C UV connected to a 37 °C temperature chamber was used. The argon laser power was set to 20%; scanning was performed at 400 Hz frequency and at a 512 × 512 pixel resolution. The smart gain and […]
smart offset were 950 V and -0.9%, respectively. With a sequential scan, we excited the sensor at 405 nm and at 488 nm and detected emissions at 500-550 nm. Laser intensity for both lines was adjusted to match the full dynamic range of the probe to the dynamic range of the detector (405 nm: 12%, 488 nm: 4%). Autofluorescence images were simultaneously taken at ex 405 nm / em 430-450 nm and individually defined together with the background for every image, but no fluorescence signal could be detected. All experiments included non- […]
and 10 mM DTT (2 min incubation), respectively, prior to blocking with NEM. Only parasites showing fluorescent signals at both 405 and 488 nm excitation and an intact host cell were chosen for analysis. Each experiment was carried out three times. At least 10 parasites were analyzed, resulting in at least 30 experimental values per incubation. The Leica LAS AF Lite software for fluorescence analysis was used. The 405/488 nm ratio was calculated. The obtained ratio values were normalized to the control ratio value, which was set to 100. The graphs were plotted using the GraphPad Prism 5 software (San Diego, CA, USA). One way-ANOVA test with 95% confidence intervals with the Dunnett’s Multiple Comparison Test was applied for statistical analysis of significance (*, p < 0.05; **, p < 0.01; ***, p < 0.001). […]
with 1 µM MQ. 24 h incubation (Supplementary Figure 8 panel B) with compound 1o resulted in a higher increase of the fluorescence ratio in a concentration-dependent manner. […]

[7] = NF54, read-out: IC50 24 h, 24 h compound incubation
[8] = NF54, 48 h compound incubation, read-out: IC50 48 h
[9] = NF54, 72 h compound incubation, read-out: IC50 72 h

SMILES: COc1ccc2c(c1)CCC1C2CC[C@@]2(C)C1CC[C@H]2NCc1ccccc1O (some centres unmarked) [1c]
- morphological effects (confocal laser scanning microscopy) ([1]; 5 μM, 6–13 days): Aggregate-like degradation products of the gastrodermis occurred within the gut lumen
- time to death of worms ([1]; 10 µM): 6 days
- time to death of worms ([1]; 20 µM): 2 days
- starting concentration with negative influence on worm physiology ([1]; pairing stability, egg production, survival, bright-field microscopy): 1 μM
- Mouse survival in days, Average ([2]; 3x 10 mg/kg p.o.): 9 days
- Mouse survival in days, individual mice M1-M3 ([2]; 3x 10 mg/kg p.o.): 8 days and 11 days and 7 days
- % activity (reduction of parasitaemia) ([2]; 3x 10 mg/kg p.o.): 47%
- % of control ([2]; 3x 10 mg/kg p.o.): 53%
- Parasitized RBC over 100, Average ([2]; 3x 10 mg/kg p.o.): 36
- Parasitized RBC over 100, individual mice M1-M3 ([2]; 3x 10 mg/kg p.o.): 28 and 26 and 53
- Mouse survival in days, Average ([2]; 3x 10 mg/kg s.c.): 7 days
- Mouse survival in days, individual mice M1-M3 ([2]; 3x 10 mg/kg s.c.): 7 days and 6 days and 8 days
- % activity (reduction of parasitaemia) ([2]; 3x 10 mg/kg s.c.): < 40%
- % of control ([2]; 3x 10 mg/kg s.c.): 83%
- Parasitized RBC over 100, Average ([2]; 3x 10 mg/kg s.c.): 56
- Parasitized RBC over 100, individual mice M1-M3 ([2]; 3x 10 mg/kg s.c.): 57 and 68 and 42
- Mouse survival in days, Average ([2]; 3x 30 mg/kg p.o.): 13 days
- Mouse survival in days, individual mice M1-M3 ([2]; 3x 30 mg/kg p.o.): 13 days and 12 days and 14 days
- % activity (reduction of parasitaemia) ([2]; 3x 30 mg/kg p.o.): 99.4%
- % of control ([2]; 3x 30 mg/kg p.o.): 0.65%
- Parasitized RBC over 100, Average ([2]; 3x 30 mg/kg p.o.): 0.44
- Parasitized RBC over 100, individual mice M1-M3 ([2]; 3x 30 mg/kg p.o.): 0.53 and 0.31 and 0.48
- Mouse survival in days, Average ([2]; 3x 30 mg/kg s.c.): 14 days
- Mouse survival in days, individual mice M1-M3 ([2]; 3x 30 mg/kg s.c.): 14 days
- % activity (reduction of parasitaemia) ([2]; 3x 30 mg/kg s.c.): 62%
- % of control ([2]; 3x 30 mg/kg s.c.): 38%
- Parasitized RBC over 100, Average ([2]; 3x 30 mg/kg s.c.): 26
- Parasitized RBC over 100, individual mice M1-M3 ([2]; 3x 30 mg/kg s.c.): 21 and 24 and 32
- Mouse survival in days, Average ([2]; 3x 100 mg/kg p.o.): 15 days
- Mouse survival in days, individual mice M1-M3 ([2]; 3x 100 mg/kg p.o.): 15 days and 17 days and 14 days
- % activity (reduction of parasitaemia) ([2]; 3x 100 mg/kg p.o.): 99.7%
- % of control ([2]; 3x 100 mg/kg p.o.): 0.30%
- Parasitized RBC over 100, Average ([2]; 3x 100 mg/kg p.o.): 0.20
- Parasitized RBC over 100, individual mice M1-M3 ([2]; 3x 100 mg/kg p.o.): 0.23 (2×) and 0.14
- GI50 (HUVEC): 17100 nM
- IC50 ([3]; 3D7, 72 h 3H-hypoxanthine incorporation, asexual blood stages, read-out: Antiplasmodial activity IC50 Pf (3D7)): 7.4 nM
- CC50 at 72 h [4]: > 128000 nM
- GI50 (K-562): 5900 nM

- melting point: 136 to 138.5 °C
SMILES: Oc1ccccc1CNC1CCCCCCC1 (as salt: perchlorate) [17c]

- speed of action (IC50 shift across 24, 48, 72 h) (P. falciparum NF54): slow-acting compound
- IC50 (P. falciparum NF54; [7]): 220 ± 61 nM
- IC50 (P. falciparum NF54; [8]): 30.4 ± 7.6 nM
- IC50 (P. falciparum NF54; [9]): 15.2 ± 1.6 nM
SMILES: CCc1nc(N)nc(N)c1-c1ccc(Cl)cc1 [Pyrimethamine]

- melting point: 152 to 153 °C
SMILES: Oc1ccccc1CNC1CCCCC1 (as salt: perchlorate) [16c]

SMILES: Oc1ccccc1CNc1ccc2ccc3cccc4ccc1c2c34 [20c]
- melting point: 160 to 163 °C
- IC50 ([3]; 3D7, non-steroid-derived analogs, read-out: IC50 on P. falciparum 3D7 asexual blood stages): 5600 nM

SMILES: OC(c1cc(C(F)(F)F)nc2c(C(F)(F)F)cccc12)C1CCCCN1 (centres unmarked) [mefloquine, reference compound]
- IC50 [5]: 8 nM
- change of 405/488 nm fluorescence ratio [6]: 1.5 fold

- melting point: 168 to 169 °C
SMILES: Oc1ccccc1CNC1CCCC1 (as salt: perchlorate) [15c]

SMILES: Oc1ccccc1CNc1ccccc1 (as salt: perchlorate) [19c]
- melting point: 183 to 186 °C

- IC50 (P. falciparum NF54; [7]): 5.5 ± 0.8 nM
- IC50 (P. falciparum NF54; [8]): 5.7 ± 0.5 nM
- IC50 (P. falciparum NF54; [9]): 4.7 ± 0.3 nM
SMILES: C[C@H]1[C@H](OC(=O)CCC(=O)O)O[C@@H]2O[C@@]3(C)CC[C@H]4[C@H](C)CC[C@@H]1[C@@]24OO3 [Artesunate]
